{"source": "patent US20200397901A1", "about": "“PHOTORESPONSIVE SMOOTHENED LIGAND” (The University of Tokyo, priority 2018, published 2020)", "key": {"[1]": {"tested_on": "ventral cerebrum markers NKX2.1 and MASH1 in cerebral organoid", "test": "Immunohistostaining of cerebral organoids with anti-NKX2.1 and anti-MASH1 antibody", "assay_type": "cell-based, human", "experimental": "(§1) The cell line iPSC 409B2 (Cell no. HPS0076) was obtained from National University Corporation Kyoto University through RIKEN BioResource Center Cell Bank. In order to maintain the undifferentiated state, the iPS cells were cultured in an Essential 8 medium on a dish coated with vitronectin (VNT-N, Thermofisher Scientific).\n(§2) A cerebral organoid was prepared according to the method described in Lancaster et al., Nat Protoc. 9: 2329-2340, 2014. Using TrypLE™ (Thermofisher Scientific), hiPSCs cultured in an E8 medium were separated into single cells, which were then reaggregated to a cell mass having a density of approximately 10,000 cells, using a […] E6 medium, in a low-adhesion 96-well round bottom plate.\n(§3) To the E6 medium, FGF2 (5 ng/mL, 0 to 4 days after initiation of the culture) and a ROCK inhibitor (Thiazovivine, 1μM, 0 to 4 days after initiation of the culture) were added. The medium was exchanged with a fresh one at 2 and 4 days after initiation of the culture. At 6 days after initiation of the culture, the medium was exchanged with a neural differentiation medium (DMEM/F12, 1% N2 supplement, insulin, 1% GlutaMax supplement, 1% NEAA, 1% penicillin-streptomycin, and 1 μg/mL heparin) containing SAG, caged SAG (photoresponsive protective group-binding SAG), or caged SAG before or after UV irradiation. When caged SAG was added, the culture was irradiated with a light for 15 minutes, using a halogen lamp. At 6, 8, and 10 days after initiation of the culture, the medium was exchanged with a fresh one.\nThree types of organoids cultured under individual conditions were recovered at 11 days after initiation of the culture, and were then subjected to qPCR. […]\nThereafter, the organoid was cut into a frozen section with a size of […] and was recovered on a slide glass. […] A fluorescent image was obtained using an inverted fluorescence microscope equipped with a CMOS camera (Zyla4.2, Andor)."}, "[2]": {"tested_on": "hedgehog signal downstream gene Gli in NIH-3T3 cells", "test": "Hedgehog signal assay in NIH-3T3 cells (Gli expression, quantitative PCR)", "assay_type": "cell-based", "experimental": "(§4) NIH-3T3 cells were allowed to grow in DMEM (supplemented with 10% FBS, glutamine, penicillin, and streptomycin). In order to perform a hedgehog signal assay, the cells that had been cultured to reach confluent were cultured in a starvation-induced medium (DMEM; serum not added) overnight, so that the cells were in a starved state. Subsequently, the medium was exchanged with a starvation-induced medium supplemented with SAG, caged SAG, SANT75, caged SANT75, or the like. Using a halogen lamp, the cells were irradiated with a light for 15 minutes. Thereafter, total RNA was extracted from the NIH-3T3 cells cultured for 6 hours, and was then subjected to real-time PCR.\n(§5) Total RNA was extracted using TriPure Isolation Reagent kit (Roche Diagnosis). cDNA was synthesized using SuperScript (registered trademark) IV Reverse Transcriptase (Invitrogen). Quantitative PCR was carried out using KAPA SYBR Fast qPCR kit (KAPA Biosystems). The data were standardized with respect to the expression level of GAPDH."}, "Smoothened": {"biological_target": "Smoothened (Mus musculus, UniProt P56726)", "sequence (P56726 33-793)": "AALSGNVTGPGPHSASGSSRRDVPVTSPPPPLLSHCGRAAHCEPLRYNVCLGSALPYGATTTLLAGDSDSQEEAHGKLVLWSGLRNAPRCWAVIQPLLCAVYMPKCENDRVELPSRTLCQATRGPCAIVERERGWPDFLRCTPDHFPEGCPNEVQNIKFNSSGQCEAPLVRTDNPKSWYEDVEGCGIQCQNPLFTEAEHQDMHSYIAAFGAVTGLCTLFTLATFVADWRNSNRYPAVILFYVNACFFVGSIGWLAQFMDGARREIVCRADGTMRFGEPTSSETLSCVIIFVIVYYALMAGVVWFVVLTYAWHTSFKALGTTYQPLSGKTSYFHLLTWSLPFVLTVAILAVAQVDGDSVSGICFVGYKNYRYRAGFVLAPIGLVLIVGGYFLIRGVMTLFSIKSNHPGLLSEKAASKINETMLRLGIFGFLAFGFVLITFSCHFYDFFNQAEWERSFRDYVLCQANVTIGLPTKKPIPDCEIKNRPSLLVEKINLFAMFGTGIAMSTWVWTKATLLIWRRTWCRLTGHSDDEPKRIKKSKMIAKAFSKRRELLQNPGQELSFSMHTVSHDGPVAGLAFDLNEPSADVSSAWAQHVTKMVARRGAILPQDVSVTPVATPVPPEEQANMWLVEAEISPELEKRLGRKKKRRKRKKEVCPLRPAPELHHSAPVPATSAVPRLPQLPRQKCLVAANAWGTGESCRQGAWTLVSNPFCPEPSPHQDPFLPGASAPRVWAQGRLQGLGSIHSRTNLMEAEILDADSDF", "conditions": "previously reported, Chen et al., Proc. Natl. Acad Sci, 99: 14071-14076, 2002; cited from earlier work"}, "[3]": {"tested_on": "hedgehog signals (Glil expression)", "test": "Inhibition of SAG-induced hedgehog signals (Glil expression) by antagonist", "assay_type": "cell-based", "conditions": "SAG 100 nM and SANT75 1 μM simultaneously", "experimental": "as §4, §5"}, "[4]": {"test": "Photolysis kinetic analysis of caged SAG using HPLC (365 nm light)", "assay_type": "physicochemical", "conditions": "100 μM caged SAG in PBS:DMSO=9:1, light at 365 nm, 0 to 8 J/cm^2, HPLC", "experimental": "100 μM Caged SAG (PBS:DMSO=9:1) was irradiated with a light at a wavelength of 365 nm at an energy intensity of 0 to 8 J/cm^2. Each sample was analyzed according to HPLC (5-C18-AR-II column, at 0 min, CH3CN:H2O=5:95, at 8 min, 30:70, and then at 15 min, 0:100). Each fraction obtained by HPLC was recovered, and was then analyzed according to ESI spectrometry."}, "[5]": {"tested_on": "ventral cerebrum markers NKX2.1 and MASH1 in cerebral organoid", "test": "Expression of ventral cerebrum markers in cerebral organoids, quantitative PCR", "assay_type": "cell-based, human", "experimental": "as §1, §2, §3\nThree types of organoids cultured under individual conditions were recovered at 11 days after initiation of the culture, and were then subjected to qPCR. Each organoid was embedded in a Matrigel droplet (25 μl), and was then transferred on a 60-mm dish containing a brain differentiation medium (DMEM/F12 : Neurobasal™ media=1:1, which was supplemented with a 0.5% N2 supplement, a 1% GlutaMax supplement, 0.5% NEAA, 1% penicillin-streptomycin, insulin, and a 1% B27 supplement (not containing vitamin A)). At 15 days after initiation of the culture, the medium was exchanged with a brain differentiation medium supplemented with a vitamin A-containing B27 supplement, and was then transferred into an Orbital Shaker. Thereafter, the medium was exchanged with a fresh one, every 4 or 5 days, until 30 days after initiation of the culture.\nas §5"}}}
{"compound": "CNC1CCC(N(Cc2cccc(-c3ccncc3)c2)C(=O)c2sc3ccccc3c2Cl)CC1", "note": "(centres unmarked) [SAG, reference compound]", "values": [{"measurement": "expression levels of NKX2.1 and MASH1", "setting": "[1]; cultured in the presence of SAG (SAG(+))", "value": "increased"}, {"measurement": "activation (expression level of Gli)", "setting": "[2]; SAG at 1 nM", "value": "only a little activation"}, {"measurement": "activation (expression level of Gli)", "setting": "[2]; SAG at 10 nM", "value": "activation was observed"}, {"measurement": "expression level of Gli", "setting": "[2]; cells cultured in the presence of SAG", "value": "increased"}, {"measurement": "EC50", "setting": "Smoothened", "value": 3, "unit": "nM"}]}
{"compound": "CCCNC1CCC(N(Cc2cccc(-c3ccncc3)c2)C(=O)c2sc3ccccc3c2Cl)CC1", "note": "(centres unmarked) [SANT75]", "values": [{"measurement": "inhibition of hedgehog signals (expression level of Glil)", "setting": "[3]", "value": "competitive inhibition"}]}
{"compound": "COc1cc(C(C)OC(=O)N(C)C2CCC(N(Cc3cccc(-c4ccncc4)c3)C(=O)c3sc4ccccc4c3Cl)CC2)c([N+](=O)[O-])cc1OCCCC(=O)O", "note": "(centres unmarked) [caged SAG]", "values": [{"measurement": "energy intensity at which photolysis was almost completed", "setting": "[4]", "value": "2-4 J/cn^2"}, {"measurement": "Smo agonistic activity", "setting": "[5]; as a result of light irradiation", "value": "the same level of Smo agonistic activity as that of SAG"}, {"measurement": "expression levels of NKX2.1 and MASH1", "setting": "[5]; caged SAG after completion of light irradiation, 100 nM, quantitative PCR", "value": "increased"}, {"measurement": "expression of the ventral cerebrum markers (NKX2.1 and MASH1)", "setting": "[5]; caged SAG before light irradiation, 100 nM, quantitative PCR", "value": "not induced"}, {"measurement": "activity of caged SAG", "setting": "[5]; photodissociable protective group bound, without light irradiation", "value": "suppressed"}, {"measurement": "expression levels of NKX2.1 and MASH1", "setting": "[1]; caged SAG after completion of light irradiation (100 nM)", "value": "increased"}, {"measurement": "expression levels of NKX2.1 and MASH1", "setting": "[1]; cerebral organoid cultured in the presence of caged SAG irradiated with a light", "value": "increased"}, {"measurement": "expression level of Gli", "setting": "[2]; 100 nM caged SAG, cells irradiated with a light", "value": "increased"}, {"measurement": "expression of Gli", "setting": "[2]; 100 nM caged SAG, cells not irradiated with a light", "value": "could not be confirmed"}, {"measurement": "activation (expression level of Gli)", "setting": "[2]; caged SAG at 1 nM, with light irradiation", "value": "only a little activation"}, {"measurement": "activation (expression level of Gli)", "setting": "[2]; caged SAG at 10 nM, with light irradiation", "value": "activation was observed"}]}
